From article PMC12385050, “Novel Neuroactive Steroid Analogs and Voltage-Dependent Blockers of CaV3.2 Currents, B372 and YX23, Are Effective Anti-Nociceptives with Diminished Sedative Properties in Intact Female Mice” (Biomolecules, 2025) come the findings set out here.

For assay [1], the target named is T1, CaV3.2 (Homo sapiens, UniProt O95180).
T1 construct: gene CACNA1H; human CaV3.2 channels stably expressed in HEK-293 cells
The assay is described as follows: whole-cell patch clamp, concentration-response of peak T-current. Type of assay: cell-based. A general note: In patch-clamp work, channel activity is measured electrically.

For assay [2], the target named is T1, CaV3.2. Briefly: whole-cell patch clamp, percent inhibition of peak current at […]. The class given is cell-based.

As usually defined, the IC50 is the concentration needed to halve the response being measured. A low value points to inhibition by little substance. The inhibition is how much of the control response was suppressed. Low values mean little suppression, high ones strong suppression.

T1 sequence (O95180 whole entry): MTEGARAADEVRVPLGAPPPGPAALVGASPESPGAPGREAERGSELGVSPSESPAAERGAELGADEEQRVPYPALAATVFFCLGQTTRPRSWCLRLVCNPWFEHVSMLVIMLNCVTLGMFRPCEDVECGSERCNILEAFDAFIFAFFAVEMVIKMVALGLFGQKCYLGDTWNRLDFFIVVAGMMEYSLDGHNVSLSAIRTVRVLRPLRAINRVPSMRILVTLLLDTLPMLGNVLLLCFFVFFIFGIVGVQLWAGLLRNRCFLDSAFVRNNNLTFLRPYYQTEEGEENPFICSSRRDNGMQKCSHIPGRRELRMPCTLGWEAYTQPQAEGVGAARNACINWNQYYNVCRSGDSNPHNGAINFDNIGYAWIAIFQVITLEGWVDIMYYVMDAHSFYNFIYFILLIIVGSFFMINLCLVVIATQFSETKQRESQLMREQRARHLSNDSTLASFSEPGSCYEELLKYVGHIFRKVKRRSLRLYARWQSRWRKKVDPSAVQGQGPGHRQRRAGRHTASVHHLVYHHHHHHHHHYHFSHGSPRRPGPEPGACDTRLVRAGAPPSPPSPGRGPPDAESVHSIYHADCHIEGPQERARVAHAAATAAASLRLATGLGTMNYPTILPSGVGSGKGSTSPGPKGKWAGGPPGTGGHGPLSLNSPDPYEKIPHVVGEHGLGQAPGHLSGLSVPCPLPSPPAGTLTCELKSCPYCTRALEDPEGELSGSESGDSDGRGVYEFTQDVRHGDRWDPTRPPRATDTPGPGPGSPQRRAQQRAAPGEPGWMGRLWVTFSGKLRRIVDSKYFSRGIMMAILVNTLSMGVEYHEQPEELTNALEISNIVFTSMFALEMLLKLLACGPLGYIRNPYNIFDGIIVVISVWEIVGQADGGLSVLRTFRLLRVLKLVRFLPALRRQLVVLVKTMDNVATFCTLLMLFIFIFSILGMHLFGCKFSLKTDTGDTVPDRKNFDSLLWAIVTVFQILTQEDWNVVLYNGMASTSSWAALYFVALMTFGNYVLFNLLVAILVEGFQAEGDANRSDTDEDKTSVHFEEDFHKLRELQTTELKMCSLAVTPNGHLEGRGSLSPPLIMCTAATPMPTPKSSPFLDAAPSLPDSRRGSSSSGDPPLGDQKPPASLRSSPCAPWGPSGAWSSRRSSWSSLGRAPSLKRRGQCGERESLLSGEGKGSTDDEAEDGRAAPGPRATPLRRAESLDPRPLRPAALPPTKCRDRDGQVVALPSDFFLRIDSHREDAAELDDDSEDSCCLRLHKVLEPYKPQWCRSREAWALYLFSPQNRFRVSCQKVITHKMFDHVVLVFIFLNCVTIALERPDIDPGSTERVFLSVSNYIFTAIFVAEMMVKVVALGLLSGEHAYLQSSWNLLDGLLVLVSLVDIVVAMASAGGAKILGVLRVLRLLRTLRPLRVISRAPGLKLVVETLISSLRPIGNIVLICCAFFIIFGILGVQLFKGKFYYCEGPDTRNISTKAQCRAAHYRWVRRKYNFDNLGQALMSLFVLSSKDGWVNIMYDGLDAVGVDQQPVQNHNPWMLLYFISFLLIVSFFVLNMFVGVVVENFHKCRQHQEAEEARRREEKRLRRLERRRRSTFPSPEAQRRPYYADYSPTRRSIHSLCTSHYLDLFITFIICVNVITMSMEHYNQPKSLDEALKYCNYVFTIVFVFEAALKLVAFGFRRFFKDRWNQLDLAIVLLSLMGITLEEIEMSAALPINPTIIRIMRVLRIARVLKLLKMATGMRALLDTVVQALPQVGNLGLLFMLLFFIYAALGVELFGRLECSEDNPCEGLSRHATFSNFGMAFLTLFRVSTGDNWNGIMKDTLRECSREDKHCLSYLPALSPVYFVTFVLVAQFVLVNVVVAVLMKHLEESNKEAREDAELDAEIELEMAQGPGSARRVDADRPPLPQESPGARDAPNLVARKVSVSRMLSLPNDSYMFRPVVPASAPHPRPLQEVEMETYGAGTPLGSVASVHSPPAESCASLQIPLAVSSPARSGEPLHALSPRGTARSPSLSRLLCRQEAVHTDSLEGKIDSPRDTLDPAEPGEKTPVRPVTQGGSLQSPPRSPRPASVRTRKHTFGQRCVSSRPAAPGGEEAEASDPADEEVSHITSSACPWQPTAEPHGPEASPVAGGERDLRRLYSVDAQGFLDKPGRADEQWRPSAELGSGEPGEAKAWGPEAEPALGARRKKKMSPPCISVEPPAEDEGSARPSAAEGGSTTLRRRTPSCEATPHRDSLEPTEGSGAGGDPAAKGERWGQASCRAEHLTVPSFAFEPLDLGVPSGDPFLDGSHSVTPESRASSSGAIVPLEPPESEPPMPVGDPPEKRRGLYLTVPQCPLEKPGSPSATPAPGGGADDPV

As to `C[C@]12CC[C@H](O)C[C@@H]1CC[C@@H]1[C@@H]2CC[C@]2(C)[C@@H](C#N)CC[C@@H]12` [compound 6, (3β,5α,17β)-3-Hydroxyandrostan-17-carbonitrile], the 50% inhibitory concentration (IC50) against CaV3.2 [1] turned out to be 3.8 µM. The same measure, in the same setting: with `CO[C@H]1CC[C@H]2[C@@H](CC[C@@H]3[C@@H]2CC[C@]2(C)[C@@H](O)CC[C@@H]32)C1` [compound 6, (3β,5α,17β)-3-Methoxyestran-17-ol] the figure was 2.4 µM.

At CaV3.2 [2], `C[C@]12CC[C@H](O)C[C@H]1CC[C@@H]1[C@@H]2CC[C@]2(C)[C@@H](C#N)CC[C@@H]12` [3β-OH, (3β,5β,17β)-3-hydroxyandrostane-17-carbonitrile] showed an inhibition at 10 µM of 48.2 ± 4.2%.

`C[C@]12CC[C@H]3[C@@H](CC[C@H]4C[C@@H](C#N)CC[C@@H]43)[C@@H]1CC[C@@H]2O` [ECN, (3β,5α,17β)-17-hydroxyestrane-3-carbonitrile]: at 10 µM the inhibition on CaV3.2 [2] was 47.4 ± 5.2%.
